Reference: ChEMBL document CHEMBL5620360, “Design, synthesis and biological evaluation of 4-(4-aminophenoxy)picolinamide derivatives as potential antitumor agents” (Eur J Med Chem, 2023)
The source made the active and inactive calls. The rule behind the calls is not given here.

Legend:
[1] = molecular target: T1, Receptor-type tyrosine-protein kinase FLT3 (Homo sapiens, UniProt P36888); experiment: Inhibition of Flt3 (unknown origin)
T1 sequence (P36888 whole entry): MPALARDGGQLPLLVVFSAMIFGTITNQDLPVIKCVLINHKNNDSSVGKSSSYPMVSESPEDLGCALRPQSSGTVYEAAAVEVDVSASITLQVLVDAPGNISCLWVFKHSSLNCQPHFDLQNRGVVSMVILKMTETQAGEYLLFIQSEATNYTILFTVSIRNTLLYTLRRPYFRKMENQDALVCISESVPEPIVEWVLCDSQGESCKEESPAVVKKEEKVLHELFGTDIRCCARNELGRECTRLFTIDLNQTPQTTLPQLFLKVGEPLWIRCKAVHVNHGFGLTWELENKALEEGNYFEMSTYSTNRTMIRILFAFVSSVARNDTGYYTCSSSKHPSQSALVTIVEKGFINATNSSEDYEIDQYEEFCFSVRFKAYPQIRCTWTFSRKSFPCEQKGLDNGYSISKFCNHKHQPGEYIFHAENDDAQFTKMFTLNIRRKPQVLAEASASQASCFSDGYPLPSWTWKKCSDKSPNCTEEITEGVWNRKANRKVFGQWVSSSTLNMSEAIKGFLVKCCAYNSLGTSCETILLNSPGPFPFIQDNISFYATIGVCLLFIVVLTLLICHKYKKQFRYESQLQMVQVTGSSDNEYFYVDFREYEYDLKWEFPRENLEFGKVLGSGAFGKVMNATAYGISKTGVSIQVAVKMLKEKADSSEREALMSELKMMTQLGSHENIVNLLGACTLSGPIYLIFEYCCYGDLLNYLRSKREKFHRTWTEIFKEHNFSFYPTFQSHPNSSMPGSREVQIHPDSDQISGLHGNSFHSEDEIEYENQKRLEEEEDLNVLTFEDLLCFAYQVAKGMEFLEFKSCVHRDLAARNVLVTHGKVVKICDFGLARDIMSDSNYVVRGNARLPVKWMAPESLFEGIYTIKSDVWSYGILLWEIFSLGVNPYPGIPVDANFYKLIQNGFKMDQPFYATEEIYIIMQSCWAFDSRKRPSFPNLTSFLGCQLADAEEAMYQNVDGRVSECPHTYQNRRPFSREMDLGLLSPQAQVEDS

[2] = tested on: A549; experiment: Induction of morphological changes in human A549 cells assessed as reduction in cell number at 1.1 uM measured after 12 hrs by acridine orange staining based fluorescence microscopy; assay type: functional
[3] = tested on: A549; experiment: Induction of apoptosis in human A549 cells assessed as late apoptotic cells at 10 uM measured after 24 hrs by AnnexinV-FITC/PI staining based flow cytometry (reference value: 1.47%); assay type: functional
[4] = tested on: A549; experiment: Induction of cell cycle arrest in human A549 cells assessed as accumulation of cells at G2 phase at 5 uM incubated for 24 hrs by propidium iodide staining based flow cytometry (reference value: 7.36%); assay type: functional
[5] = tested on: MCF7; experiment: cells; conditions: Homo sapiens, MCF7, 72 h
[6] = AUC(0 to t) in Sprague-Dawley rat at 1 mg/kg, iv by LC-MS/MS analysis; assay type: ADME, organism-based; conditions: in vivo
[7] = Half life in Sprague-Dawley rat at 1 mg/kg, iv by LC-MS/MS analysis; assay type: ADME, organism-based; conditions: in vivo
[8] = tested on: A549; experiment: Induction of cell cycle arrest in human A549 cells assessed as accumulation of cells at G2 phase at […] incubated for 24 hrs by propidium iodide staining based flow cytometry (reference value: 7.36%); assay type: functional; conditions: dose 2.5 µM
[9] = Half life in Sprague-Dawley rat at 10 mg/kg, po by LC-MS/MS analysis; assay type: ADME, organism-based; conditions: in vivo
[10] = tested on: A549; experiment: Induction of morphological changes in human A549 cells assessed as abnormal cell morphology at 1.1 uM measured after 12 hrs by acridine orange staining based fluorescence microscopy; assay type: functional
[11] = tested on: A549; experiment: cells; conditions: Homo sapiens, A549, 72 h
[12] = tested on: A549; experiment: Induction of cell cycle arrest in human A549 cells assessed as accumulation of cells at S phase at […] incubated for 24 hrs by propidium iodide staining based flow cytometry (reference value: 38.18%); assay type: functional; conditions: dose 2.5 µM
[13] = tested on: A549; experiment: Induction of apoptosis in human A549 cells assessed as early apoptotic cells at 5 uM measured after 24 hrs by AnnexinV-FITC/PI staining based flow cytometry (reference value: 1.26%); assay type: functional
[14] = tested on: A549; experiment: Induction of cell cycle arrest in human A549 cells assessed as accumulation of cells at G1 phase at […] incubated for 24 hrs by propidium iodide staining based flow cytometry (reference value: 54.46%); assay type: functional; conditions: dose 2.5 µM
[15] = molecular target: Hepatocyte growth factor receptor (Homo sapiens, UniProt P08581); experiment: Inhibition of c-Met (unknown origin)
[16] = molecular target: Mast/stem cell growth factor receptor Kit (Homo sapiens, UniProt P10721); experiment: Inhibition of c-Kit (unknown origin)
[17] = Oral bioavailability in Sprague-Dawley rat at 10 mg/kg by LC-MS/MS analysis; assay type: ADME, organism-based; conditions: in vivo
[18] = Cmax in Sprague-Dawley rat at 10 mg/kg, po by LC-MS/MS analysis; assay type: ADME, organism-based; conditions: in vivo
[19] = tested on: HeLa; experiment: Antiproliferative activity against human HeLa cells assessed as reduction in cell viability incubated for 72 hrs by MTT assay; assay type: functional, cell-based; conditions: Homo sapiens, HeLa, 72 h; read-out: IC50
[20] = tested on: A549; experiment: Induction of cell cycle arrest in human A549 cells assessed as accumulation of cells at S phase at 10 uM incubated for 24 hrs by propidium iodide staining based flow cytometry (reference value: 38.18%); assay type: functional
[21] = tested on: A549; experiment: Potency index, ratio of cabozantinib IC50 to test compound IC50 for antiproliferative activity against human A549 cells; assay type: functional
[22] = tested on: A549; experiment: Induction of apoptosis in human A549 cells assessed as early apoptotic cells at 10 uM measured after 24 hrs by AnnexinV-FITC/PI staining based flow cytometry (reference value: 1.26%); assay type: functional
[23] = Cmax in Sprague-Dawley rat at 1 mg/kg, iv by LC-MS/MS analysis; assay type: ADME, organism-based; conditions: in vivo
[24] = tested on: A549; experiment: Induction of apoptosis in human A549 cells assessed as early apoptotic cells at […] measured after 24 hrs by AnnexinV-FITC/PI staining based flow cytometry (reference value: 1.26%); assay type: functional; conditions: dose 2.5 µM
[25] = molecular target: Dual specificity mitogen-activated protein kinase kinase 1 (Homo sapiens, UniProt Q02750); experiment: Inhibition of MEK1 (unknown origin)
[26] = tested on: A549; experiment: Induction of morphological changes in human A549 cells assessed as nucleus division and dispersion at 1.1 uM measured after 12 hrs by acridine orange staining based fluorescence microscopy; assay type: functional, cell-based
[27] = tested on: A549; experiment: Induction of apoptosis in human A549 cells assessed as viable cells at 5 uM measured after 24 hrs by AnnexinV-FITC/PI staining based flow cytometry (reference value: 93.25%); assay type: functional; conditions: read-out: Activity
[28] = tested on: A549; experiment: Induction of cell cycle arrest in human A549 cells assessed as accumulation of cells at S phase at 5 uM incubated for 24 hrs by propidium iodide staining based flow cytometry (reference value: 38.18%); assay type: functional
[29] = tested on: A549; experiment: Induction of apoptosis in human A549 cells assessed as viable cells at 10 uM measured after 24 hrs by AnnexinV-FITC/PI staining based flow cytometry (reference value: 93.25%); assay type: functional; conditions: read-out: Activity

Chain of Mast/stem cell growth factor receptor Kit (P10721 whole entry): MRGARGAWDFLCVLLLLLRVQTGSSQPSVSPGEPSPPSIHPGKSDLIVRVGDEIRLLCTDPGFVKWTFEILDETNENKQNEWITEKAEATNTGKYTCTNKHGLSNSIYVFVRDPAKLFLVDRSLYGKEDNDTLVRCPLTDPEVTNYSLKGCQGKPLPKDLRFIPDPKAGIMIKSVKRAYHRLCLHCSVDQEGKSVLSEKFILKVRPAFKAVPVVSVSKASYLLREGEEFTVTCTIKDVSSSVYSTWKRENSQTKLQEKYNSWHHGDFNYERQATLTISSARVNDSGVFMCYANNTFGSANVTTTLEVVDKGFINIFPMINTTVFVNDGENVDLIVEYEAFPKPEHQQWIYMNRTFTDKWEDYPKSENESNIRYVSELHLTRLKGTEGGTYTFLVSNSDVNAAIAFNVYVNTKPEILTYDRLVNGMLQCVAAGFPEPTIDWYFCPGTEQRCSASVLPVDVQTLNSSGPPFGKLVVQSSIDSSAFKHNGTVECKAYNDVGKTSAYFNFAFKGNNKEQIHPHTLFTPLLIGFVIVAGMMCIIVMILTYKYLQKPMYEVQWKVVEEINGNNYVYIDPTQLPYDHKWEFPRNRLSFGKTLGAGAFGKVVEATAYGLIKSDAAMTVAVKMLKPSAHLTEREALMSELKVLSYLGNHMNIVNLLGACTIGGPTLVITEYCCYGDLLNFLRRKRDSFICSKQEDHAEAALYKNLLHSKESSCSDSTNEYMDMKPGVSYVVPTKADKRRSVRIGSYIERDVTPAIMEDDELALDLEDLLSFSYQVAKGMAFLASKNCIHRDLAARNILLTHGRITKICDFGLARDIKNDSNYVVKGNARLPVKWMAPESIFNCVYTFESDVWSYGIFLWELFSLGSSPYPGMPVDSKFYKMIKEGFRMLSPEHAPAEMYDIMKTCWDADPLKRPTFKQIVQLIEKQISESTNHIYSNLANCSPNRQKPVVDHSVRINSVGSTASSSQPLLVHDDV
Chain of Hepatocyte growth factor receptor (P08581 whole entry): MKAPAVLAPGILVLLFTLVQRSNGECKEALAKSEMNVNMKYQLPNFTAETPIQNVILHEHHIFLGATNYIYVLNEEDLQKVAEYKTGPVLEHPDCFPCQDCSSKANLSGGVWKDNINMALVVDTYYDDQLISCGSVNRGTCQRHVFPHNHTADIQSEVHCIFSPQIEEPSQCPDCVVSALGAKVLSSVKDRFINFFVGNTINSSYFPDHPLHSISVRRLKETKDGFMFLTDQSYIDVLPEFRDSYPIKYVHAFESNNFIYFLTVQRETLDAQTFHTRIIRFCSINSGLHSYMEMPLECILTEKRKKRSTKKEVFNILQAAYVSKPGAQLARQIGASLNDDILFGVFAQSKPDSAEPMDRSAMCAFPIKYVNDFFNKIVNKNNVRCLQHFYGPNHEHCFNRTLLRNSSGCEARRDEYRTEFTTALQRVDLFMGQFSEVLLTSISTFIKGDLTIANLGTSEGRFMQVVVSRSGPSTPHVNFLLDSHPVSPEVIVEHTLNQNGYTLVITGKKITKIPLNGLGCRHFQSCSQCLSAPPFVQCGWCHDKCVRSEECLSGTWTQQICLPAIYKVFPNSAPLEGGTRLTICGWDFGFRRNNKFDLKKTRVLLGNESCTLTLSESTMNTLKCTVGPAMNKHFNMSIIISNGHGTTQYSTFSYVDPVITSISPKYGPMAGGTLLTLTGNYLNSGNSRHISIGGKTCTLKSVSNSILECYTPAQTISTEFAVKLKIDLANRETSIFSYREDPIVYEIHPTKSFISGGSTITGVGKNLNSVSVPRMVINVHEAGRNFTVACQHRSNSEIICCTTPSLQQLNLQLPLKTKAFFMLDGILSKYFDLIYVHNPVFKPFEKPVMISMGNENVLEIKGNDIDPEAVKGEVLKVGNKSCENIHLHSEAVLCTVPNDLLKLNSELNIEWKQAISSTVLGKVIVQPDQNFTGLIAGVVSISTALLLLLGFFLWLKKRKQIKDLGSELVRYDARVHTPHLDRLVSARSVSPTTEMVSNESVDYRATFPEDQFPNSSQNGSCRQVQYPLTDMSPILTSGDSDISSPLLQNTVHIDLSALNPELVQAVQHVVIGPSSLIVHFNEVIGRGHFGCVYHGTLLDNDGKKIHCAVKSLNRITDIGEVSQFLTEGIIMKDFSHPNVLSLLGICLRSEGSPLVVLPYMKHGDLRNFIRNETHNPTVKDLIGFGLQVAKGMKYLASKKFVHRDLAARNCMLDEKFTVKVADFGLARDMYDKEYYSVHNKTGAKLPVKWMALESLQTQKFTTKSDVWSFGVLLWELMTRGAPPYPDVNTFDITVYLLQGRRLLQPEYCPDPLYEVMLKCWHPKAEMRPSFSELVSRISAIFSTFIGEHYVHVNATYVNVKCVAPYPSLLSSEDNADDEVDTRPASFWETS
Chain of Dual specificity mitogen-activated protein kinase kinase 1 (Q02750 whole entry): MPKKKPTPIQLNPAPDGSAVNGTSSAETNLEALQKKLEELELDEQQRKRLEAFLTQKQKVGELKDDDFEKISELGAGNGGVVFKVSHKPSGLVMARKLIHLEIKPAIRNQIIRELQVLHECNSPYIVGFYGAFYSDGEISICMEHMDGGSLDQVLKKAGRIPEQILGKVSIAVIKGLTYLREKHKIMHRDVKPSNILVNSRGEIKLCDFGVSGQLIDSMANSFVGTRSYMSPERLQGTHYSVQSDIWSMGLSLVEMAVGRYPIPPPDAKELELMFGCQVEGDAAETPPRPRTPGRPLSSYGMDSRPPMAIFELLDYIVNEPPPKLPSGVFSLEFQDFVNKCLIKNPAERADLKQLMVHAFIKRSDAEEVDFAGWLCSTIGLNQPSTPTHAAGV

**Q.** With O=C(NCCCN1CCOCC1)c1cc(Oc2ccc(NC(=O)c3cn(-c4ccc(F)c(Cl)c4)c4ncccc4c3=O)cc2F)ccn1 as the molecule, how does the IC50 [1] read?
**A.** The IC50 was > 100 µM.

**Q.** What about the Activity [2] of the same molecule?
**A.** Its Activity is “Active”.

**Q.** What about the Activity [3] of the same molecule?
**A.** The Activity was 8.25%.

**Q.** And the Activity [4]?
**A.** The Activity was 11.77%.

**Q.** And the IC50 [5]?
**A.** Its IC50 is 2350 nM.

**Q.** And the AUC(0-t) [6]?
**A.** The AUC(0-t) was 2860 ng·h/mL.

**Q.** And the half-life [7]?
**A.** The half-life was 150 min.

**Q.** What about the Activity [8] of the same molecule?
**A.** Its Activity is 8.89%.

**Q.** And the half-life [9]?
**A.** Its half-life is 270 min.

**Q.** What about the Activity [10] of the same molecule?
**A.** Its Activity is “Active”.

**Q.** And the IC50 [11]?
**A.** Its IC50 is 260 nM.

**Q.** And the Activity [12]?
**A.** Its Activity is 35.16%.

**Q.** And the Activity [13]?
**A.** The Activity was 3.02%.

**Q.** And the Activity [14]?
**A.** The Activity was 55.95%.

**Q.** And the IC50 [15]?
**A.** Its IC50 is 46.5 nM.

**Q.** And the IC50 [16]?
**A.** Its IC50 is > 100 µM.

**Q.** What about the bioavailability [17] of the same molecule?
**A.** The bioavailability was 13.2%.

**Q.** And the Cmax [18]?
**A.** The Cmax was 390 ng/mL.

**Q.** And the IC50 [19]?
**A.** The IC50 was 820 nM.

**Q.** What about the Activity [20] of the same molecule?
**A.** Its Activity is 28.68%.

**Q.** What about the “Ratio IC50” value [21] of the same molecule?
**A.** Its value is 2.4.

**Q.** And the Activity [22]?
**A.** Its Activity is 5.57%.

**Q.** What about the Cmax [23] of the same molecule?
**A.** Its Cmax is 1630 ng/mL.

**Q.** And the Activity [24]?
**A.** The Activity was 1.57%.

**Q.** What about the IC50 [25] of the same molecule?
**A.** Its IC50 is > 100 µM.

**Q.** And the Activity [26]?
**A.** Its Activity is “Active”.

**Q.** And the viability at 5 µM [27]?
**A.** Its viability at 5 µM is 85.2%.

**Q.** And the Activity [28]?
**A.** The Activity was 30.85%.

**Q.** And the viability at 10 µM [29]?
**A.** Its viability at 10 µM is 74.3%.
